Data as given in patent US20260294906A1, “TREATING PSORIASIS USING A SMALL MOLECULE INHIBITOR OF TUMOR NECROSIS FACTOR ALPHA” (SANOFI, priority 2023, published 2026).
“Also recorded” adds a separate entry of the source.

Columns and labels:
Type in all cases: in vivo, human
[1] = test system: patients with mild to moderate psoriasis; experiment: Clinical response by static Investigator's Global Assessment (sIGA) score, phase 1 placebo-controlled study; conditions: 200 mg BID
Method: A double-blind, randomized, placebo-controlled phase 1 study was carried out in participants with mild to moderate psoriasis. Study participants were randomized to 200 mg twice a day (BID) of Compound 1 or placebo in 2:1 ratio (approximately 24 in the treatment group and 12 in the placebo group). The study comprised an up to 4-week screening period, and a 4-week treatment period with Compound 1 or placebo. An end-of-study visit was carried out 10±3 days after the last investigational medicinal product (IMP) administration.
(§1) Two study interventions were used, Compound 1 and placebo. The Compound 1 intervention comprised 4× tablets of Compound 1 50 mg twice daily, i.e. 200 mg BID, for 4 weeks. The placebo intervention was 4× tablets of placebo twice daily for 4 weeks. Tablets were administered orally.
The interventions were used in two arms of the study. Arm 1 was the experimental arm and it involved participants receiving 200 mg of Compound BID for 4 weeks under fed conditions. Arm 2 was the placebo arm and it involved participants receiving the matching placebo tablets for 4 weeks under fed conditions.
The sIGA employed in this study is a six-point ordinal scale used to assess the global severity of disease over the body as a whole, as measured by the overall degree of induration, scaling and erythema of a subject's psoriatic lesions. For statistical analysis, the scale was assigned scores of 0 to 5, for ‘clear’ to ‘very severe’, respectively.
Scoring was accorded to a subject on a scale of 0 to 5 for each of erythema, induration, and scaling; a mean sIGA score was calculated as the mean average of those individual scores and this was translated into an overall sIGA score (an integer between 0 and 5) as described in the tables below:
The sIGA score was assessed as described herein.

[2] = Plasma levels of Compound 1 in the study population (pharmacokinetics); conditions: 200 mg BID oral, fed
Method: (§2) The primary objective of the study was to assess the safety, tolerability, and clinical efficacy of Compound 1 at 200 mg BID via oral administration. Also evaluated was the clinical effect of Compound 1 as compared to placebo on the percent change in PASI and TLS scores from baseline to week 2 and week 4. The percent change in PASI score from baseline to week 4 was determined. TLS score was also assessed over the same time period. Also assessed was the effect of Compound 1 on biomarkers of psoriasis. Blood samples collected at predetermined time points were processed to quantify serum levels of biomarkers, including interleukin (IL)-17A, IL-17F, and IL-22 by high sensitivity methods. IL-17A, IL-17F and IL-22 are the main cytokines released by Th17 cells. Plasma levels of Compound 1 were measured to assess pharmacokinetics in the study population.
as §1
The interventions were used in two arms of the study. Arm 1 was the experimental arm and it involved participants receiving 200 mg of Compound BID for 4 weeks under fed conditions. […]

[3] = test system: IL-17F; experiment: Serum levels of biomarker IL-17F (single molecule counting sandwich immunoassay)
Method: as §2, §1
Blood samples were processed for analysis of IL-17A, IL-17F and IL-22 in serum samples by high sensitivity methods. Samples were collected according to the schedule of activity described above.
As indicated above, peripheral blood samples collected at predetermined time points were processed to quantify serum levels of biomarkers of psoriasis including IL-17A, IL-17F, and IL-22. Levels of IL-17A and IL-17F were quantified using a single molecule counting sandwich immunoassay (SMCxPro™, Millipore—see also Hwang et al., Methods (2019) 158:69-76). Levels of IL-22 were quantified using a single-molecule array ELISA (SIMOA™, Myriad RBM—see also Rissin et al., Anal Chem (2011) 83(6):2279-2285). Statistical analysis was based on geometric mean ratio to baseline; a two-sample t-test at significance alpha level of 5% was used for calculation of the p-values.

## CN1C(=O)c2cccc(OC(F)F)c2[C@H]2C[C@@H]1c1nc3ccc(-c4cnc(C5(N)CCC5)nc4)cc3n12 [Compound 1, (7R,14R)-11-[2-(1-aminocyclobutyl)pyrimidin-5-yl]-1-(difluoromethoxy)-6-methyl-6,7-dihydro-7,14-methanobenzimidazo[1,2-b][2,5]benzodiazocin-5(14H)-one]
[1]; compared with placebo
  change in sIGA score (in words): clinically important change in sIGA score after 4 weeks of treatment; also recorded: a higher percentage of patients receiving Compound 1 improved from ‘moderate’ disease at baseline, to ‘mild’ or ‘almost clear’ at week 2 and week 4
[1]; week 2
  % of subjects with no change in sIGA from baseline: 68.0%
  % of subjects with sIGA change from baseline of −1: 32.0%
  Number of subjects with no change in sIGA from baseline: 17
  Number of subjects with sIGA change from baseline of +1: 0
  Number of subjects with sIGA change from baseline of −1: 8
[1]; week 4
  % of subjects with no change in sIGA from baseline: 38.5%
  % of subjects with sIGA change from baseline of +1: 4.2%
  Number of subjects with no change in sIGA from baseline: 9
  Number of subjects with sIGA change from baseline of +1: 1
  Number of subjects with sIGA change from baseline of −1: 14
[1]; week 4, placebo 0%
  % of subjects with sIGA change from baseline of −1 (improvement by at least 1 severity level): 58.3%
[2]; Day 8 through Day 29
  Mean pre-dose plasma levels / steady state (in words): steady state was achieved within the first week and maintained until the end of the treatment
[2]; compared with previous study in healthy participants
  Mean pre-dose and post-dose plasma concentrations (in words): consistent with analogous values observed at the same dose in a previous study in healthy participants; also recorded: consistent with pharmacokinetic data previously obtained in healthy participants
[3]; after treatment for 4 weeks
  Serum level of IL-17F (in words): substantially decreased
[3]; baseline (before treatment)
  Serum level of IL-17F, geometric mean (geometric SE): 2.63 (1.19) pg/mL
[3]; week 2, 200 mg BID
  Serum level of IL-17F, geometric mean (geometric SE): 1.65 (1.21) pg/mL
[3]; week 4, 200 mg BID
  Serum level of IL-17F, geometric mean (geometric SE): 1.35 (1.21) pg/mL
